ChEMBL document CHEMBL5512671, “Structure-Based Optimization of Novel Sterol 24-C-Methyltransferase Inhibitors for the Treatment of Candida albicans Infections” (J Med Chem, 2024)
Active and inactive are the calls of the source. The rule behind the calls is not given here.

Legend:
Candida albicans [1] = test: Antifungal activity against Candida albicans SC5314 assessed as inhibition of fungal growth incubated for 24 hrs by CLSI protocol based broth microdilution method; assay type: functional
Candida albicans [2] = test: Antifungal activity against Candida albicans SC5314 assessed as inhibition of hyphae growth incubated for 24 hrs by CLSI protocol based broth microdilution method; assay type: functional
[3] = Cytotoxicity against human HUVEC cells incubated for 48 hrs by CCK-8 method; assay type: toxicity, cell-based
[4] = Hemolytic activity in mouse RBC assessed as hemolysis at 2 to 32 ug/ml incubated for 60 mins by absorbance based analysis relative to control; assay type: toxicity, cell-based, Erythrocyte; conditions: mouse red blood cells, at 2 to 32 µg/mL, dose 2-32 µg/ml, read-out: Activity
[5] = target: T1, Sterol 24-C-methyltransferase (Candida albicans (strain SC5314 / ATCC MYA-2876) (Yeast)) (UniProt O74198); test: Inhibition of Candida albicans SC5314 Erg6 assessed as fold increase in zymosterol content at 1 ug/ml incubated for 12 hrs by GC-MS analysis; conditions: dose 1.0 µg/ml
T1 sequence (whole entry): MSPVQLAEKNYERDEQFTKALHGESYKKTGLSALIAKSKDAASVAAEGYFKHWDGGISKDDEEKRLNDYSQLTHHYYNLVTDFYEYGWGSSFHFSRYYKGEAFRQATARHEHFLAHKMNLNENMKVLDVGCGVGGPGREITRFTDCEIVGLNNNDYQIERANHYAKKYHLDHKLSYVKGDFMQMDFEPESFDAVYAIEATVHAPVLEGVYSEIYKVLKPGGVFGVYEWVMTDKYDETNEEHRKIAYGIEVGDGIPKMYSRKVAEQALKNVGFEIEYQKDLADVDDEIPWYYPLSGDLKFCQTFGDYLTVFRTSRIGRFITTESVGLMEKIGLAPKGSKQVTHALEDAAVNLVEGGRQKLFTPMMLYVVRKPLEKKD

[6] = target: T1, Sterol 24-C-methyltransferase (Candida albicans (strain SC5314 / ATCC MYA-2876) (Yeast)); test: Thermal stabilization of recombinant Candida albicans SC5314 Erg6 transfected in Escherichia coli BL21 (DE3) at 0.5 ug/ml incubated for 30 mins at 43 to 57 degreeC by Western blot analysis; conditions: dose 0.5 µg/ml
[7] = target: T2, Sterol 24-C-methyltransferase (Candida albicans (strain SC5314 / ATCC MYA-2876) (Yeast), UniProt O74198); test: Inhibition of recombinant Candida albicans SC5314 Erg6 methyltransferase activity using zymosterol as substrate incubated for 15 mins followed by substrate addition by liquid scintillation counter analysis
T2 sequence (O74198 whole entry): T1 sequence (whole entry)

Candida albicans [8] = test: Downregulation of RAS1 gene level in Candida albicans SC5314 at 1 ug/ml incubated for 6 hrs by qPCR analysis; assay type: functional; conditions: dose 1.0 µg/ml
Candida albicans [9] = test: Upregulation of PDE2 gene level in Candida albicans SC5314 at 1 ug/ml incubated for 6 hrs by qPCR analysis; assay type: functional; conditions: dose 1.0 µg/ml
Candida albicans [10] = test: Downregulation of ALS3 expression in Candida albicans SC5314 at 1 ug/ml incubated for 6 hrs by qPCR analysis; assay type: functional; conditions: dose 1.0 µg/ml
Candida parapsilosis [11] = test: Antifungal activity against Candida parapsilosis CP1 assessed as inhibition of fungal growth incubated for 24 hrs by CLSI protocol based broth microdilution method; assay type: functional; conditions: Lodderomyces parapsilosis
Nakaseomyces glabratus [12] = test: Antifungal activity against Candida glabrata CG2 assessed as inhibition of fungal growth incubated for 24 hrs by CLSI protocol based broth microdilution method; assay type: functional
[Candida] auris [13] = Antifungal activity against Candida auris CBS12774 assessed as inhibition of hyphae formation at 1 ug/ml measured after 6 hrs by microscopy based analysis; assay type: functional, organism-based; conditions: Candidozyma auris, dose 1.0 µg/ml
[Candida] auris [14] = Antifungal activity against Candida auris CBS12774 assessed as effect on cell size at 1 ug/ml measured after 6 hrs by microscopy based analysis; assay type: functional, organism-based; conditions: Candidozyma auris, dose 1.0 µg/ml
[Candida] auris [15] = Antifungal activity against Candida auris CBS12774 assessed as effect on cell structure at 1 ug/ml measured after 6 hrs by microscopy based analysis; assay type: functional, organism-based; conditions: Candidozyma auris, dose 1.0 µg/ml
Candida parapsilosis [16] = test: Antifungal activity against Candida parapsilosis CP1 assessed as inhibition of hyphae formation at 1 ug/ml measured after 6 hrs by microscopy based analysis; assay type: functional, organism-based; conditions: dose 1.0 µg/ml
Candida parapsilosis [17] = test: Antifungal activity against Candida parapsilosis CP1 assessed as effect on cell size at 1 ug/ml measured after 6 hrs by microscopy based analysis; assay type: functional, organism-based; conditions: dose 1.0 µg/ml
Candida parapsilosis [18] = test: Antifungal activity against Candida parapsilosis CP1 assessed as effect on structure at 1 ug/ml measured after 6 hrs by microscopy based analysis; assay type: functional, organism-based; conditions: dose 1.0 µg/ml
Nakaseomyces glabratus [19] = test: Antifungal activity against Candida glabrata CG2 assessed as inhibition of hyphae formation at 1 ug/ml measured after 6 hrs by microscopy based analysis; assay type: functional, organism-based; conditions: dose 1.0 µg/ml
Candida albicans [20] = test: Synergistic antifungal activity against Candida albicans SC5314 assessed as inhibition of fungal growth incubated for 24 hrs in presence of tridemorph by broth microdilution checkerboard assay; assay type: functional
Candida albicans [21] = test: Synergistic antifungal activity against Candida albicans SC5314 assessed as inhibition of fungal growth incubated for 24 hrs in presence of terbinafine by broth microdilution checkerboard assay; assay type: functional
Candida albicans [22] = test: Synergistic antifungal activity against Candida albicans SC5314 assessed as fractional inhibitory concentration index incubated for 24 hrs in presence of tridemorph by broth microdilution checkerboard assay; assay type: functional
Candida albicans [23] = test: Fungistatic activity against Candida albicans SC5314 at 1 ug/ml incubated for 3 hrs in presence of tridemorph by SYTOX staining based analysis; assay type: functional, organism-based; conditions: dose 1.0 µg/ml
Candida albicans [24] = test: Fungistatic activity against Candida albicans SC5314 at 1 ug/ml incubated for 3 hrs in presence of terbinafine by SYTOX staining based analysis; assay type: functional, organism-based; conditions: dose 1.0 µg/ml
Candida albicans [25] = test: Antifungal activity against Candida albicans SC5314 infected in Balb/C mouse candidiasis model assessed as decrease in skin fungal burden by measuring fold change at 0.5 % administered topically and measured after 72 hrs in presence of tridemorph; assay type: functional
Candida albicans [26] = test: Antifungal activity against Candida albicans SC5314 infected in Balb/C mouse candidiasis model assessed as filamentation defect at 0.5 % administered topically and measured after 72 hrs by PAS staining based analysis; assay type: functional, organism-based
Candida albicans [27] = test: Antifungal activity against Candida albicans SC5314 infected in Balb/C mouse candidiasis model assessed as appearance of inflammatory infiltrates at 0.5 % administered topically and measured after 72 hrs by H and E staining based analysis; assay type: functional, organism-based
Candida albicans [28] = test: Antifungal activity against Candida albicans CAI4/pBA1-ERG6 assessed as inhibition of hyphae growth incubated for 24 hrs by CLSI protocol based broth microdilution method; assay type: functional, organism-based
Candida albicans [29] = test: Antifungal activity against Candida albicans SC5314 assessed as inhibition of hyphae growth measured after 5 days cultured under solid spider agar medium by microscopy based analysis; assay type: functional, organism-based; conditions: dose 0.25-1 µg/ml, time 5.0 day
Candida albicans [30] = test: Antifungal activity against Candida albicans SC5314 assessed as inhibition of hyphae growth measured after 5 days cultured under solid spider agar medium and 10mM GlcNAc by microscopy based analysis; assay type: functional, organism-based; conditions: dose 0.25-1 µg/ml, time 5.0 day
Candida albicans [31] = test: Antifungal activity against Candida albicans SC5314 assessed as inhibition of morphological transition at 0.5 ug/ml measured after 5 days cultured under YPD embedded agar medium by microscopy based analysis relative to control; assay type: functional; design: scale not given: the % may be the effect or the level left; conditions: dose 0.5 µg/ml; time 5 day
Candida albicans [32] = test: Antibiofilm activity against Candida albicans CA14-TDH3-GFP at 0.5 to 2 ug/ml incubated for 24 hrs by XTT reduction assay; assay type: functional, organism-based; conditions: dose 0.5-2 µg/ml

For Cc1c(-n2c(-c3ccc4ccccc4c3)cs/c2=N\c2ccccc2)c(=O)n(-c2ccccc2)n1C, the MIC80 (Candida albicans [1]) was > 128 µg/mL, the MIC50 (Candida albicans [2]) was > 128 µg/mL and the EC50 at 48 h [3] was > 50 µg/mL. For the same compound, the hemolysis at 1 h [4] was < 1%, the fold change (FC) [5] was 11 and the Activity [6] was “Active”. The IC50 [7] was 273 nM, the Activity (Candida albicans [8]) was “Active” and the Activity (Candida albicans [9]) was “Active”. For the same compound, the Activity (Candida albicans [10]) was “Active”, the MIC (Candida parapsilosis [11]) was > 128 µg/mL and the MIC (Nakaseomyces glabratus [12]) was > 128 µg/mL. The Activity ([Candida] auris [13]) was “Active”, the Activity ([Candida] auris [14]) was “inactive” and the Activity ([Candida] auris [15]) was “inactive”. The Activity (Candida parapsilosis [16]) was “Active”, the Activity (Candida parapsilosis [17]) was “inactive” and the Activity (Candida parapsilosis [18]) was “inactive”. The Activity (Nakaseomyces glabratus [19]) was “Active”, the MIC80 (Candida albicans [20]) was 1 µg/mL and the MIC80 (Candida albicans [21]) was 1 µg/mL. For the same compound, the “fractional inhibitory concentration index (FICI)” value (Candida albicans [22]) was <0.1, the Activity (Candida albicans [23]) was “Active” and the Activity (Candida albicans [24]) was “Active”. For the same compound, the “fold change (FC)” value (Candida albicans [25]) was 60.26, the Activity (Candida albicans [26]) was “Active” and the Activity (Candida albicans [27]) was “Active”. For the same compound, the Activity (Candida albicans [28]) was “Active”, the Activity (Candida albicans [29]) was “Dose-Dependent Effect” and the Activity (Candida albicans [30]) was “Dose-Dependent Effect”. The Activity (Candida albicans [31]) was 100% and the Activity (Candida albicans [32]) was “Active”.
